Measured values from ChEMBL document CHEMBL3091327, “3',4'-Bis-difluoromethoxycinnamoylanthranilate (FT061): an orally-active antifibrotic agent that reduces albuminuria in a rat model of progressive diabetic nephropathy” (Bioorg Med Chem Lett, 2013).
Calls of active or inactive are those of the source. The rule behind the calls is not given here.

Columns and labels:
[1] = Antifibrotic activity in rat renal mesangial cells assessed as inhibition of TGF-beta1-induced [3H]-proline incorporation into collagen at 10 uM treated 4 hrs before TGF-beta1 addition measured after 44 hrs by liquid scintillation counting; type: functional, cell-based
[2] = Antifibrotic activity in rat renal mesangial cells assessed as inhibition of TGF-beta1-induced [3H]-proline incorporation into collagen at 30 uM treated 4 hrs before TGF-beta1 addition measured after 44 hrs by liquid scintillation counting; type: functional, cell-based
[3] = test system: Liver microsome; test: Metabolic stability in human liver microsomes at 1 uM after 60 mins by LC/MS analysis in presence of NADPH; type: ADME; settings: 1 h
[4] = test system: Rattus norvegicus; test: Hepatotoxicity in Sprague-Dawley rat assessed as effect on serum ALT level at 50 to 1000 mg/kg, po bid for 2 weeks; type: toxicity, organism-based; set-up: dose 50-1000 mg/kg, route oral; settings: in vivo, 336 h
[5] = Apparent half life in Sprague-Dawley rat at 5 mg/kg, iv; type: ADME, organism-based; set-up: dose 5 mg/kg, route intravenous; settings: in vivo, read-out: t1/2(app) (converted)
[6] = Drug level in Sprague-Dawley rat urine at 20 mg/kg, po; type: ADME, organism-based; set-up: dose 20 mg/kg, route oral; settings: read-out: Drug uptake
[7] = AUC (0 to infinity) in Sprague-Dawley rat at 5 mg/kg, iv; type: ADME, organism-based; set-up: time infinity, dose 5 mg/kg, route intravenous; settings: plasma
[8] = test system: Rattus norvegicus; test: Reduction of albuminuria in (mRen-2)27 rat streptozotocin-induced diabetic nephropathy model assessed as reduction of albumin level in urine at 200 mg/kg, po qd for 8 weeks administered 8 weeks post-streptozotocin treatment by radioimmunoassay; type: functional, organism-based; set-up: dose 200 mg/kg
[9] = test system: Rattus norvegicus; test: Renal toxicity in Sprague-Dawley rat assessed as effect on serum creatinine level at 50 to 1000 mg/kg, po bid for 2 weeks; type: organism-based; set-up: dose 50-1000 mg/kg, route oral; settings: in vivo, 336 h
[10] = test system: Rattus norvegicus; test: Hepatotoxicity in Sprague-Dawley rat assessed as effect on serum bilirubin level at 50 to 1000 mg/kg, po bid for 2 weeks; type: toxicity, organism-based; set-up: dose 50-1000 mg/kg, route oral; settings: in vivo, 336 h
[11] = Plasma clearance in Sprague-Dawley rat at 5 mg/kg, iv; type: ADME, organism-based; set-up: dose 5 mg/kg, route intravenous
[12] = Oral bioavailability in Sprague-Dawley rat at 20 mg/kg; type: ADME, organism-based; settings: in vivo
[13] = test system: Rattus norvegicus; test: (§1) AUC (0 to infinity) in Sprague-Dawley rat at 20 mg/kg, po; type: ADME, organism-based, Plasma; set-up: dose 20 mg/kg, route oral, time infinity; settings: in vivo
[14] = test system: Rattus norvegicus; test: (§2) Cmax in Sprague-Dawley rat at 20 mg/kg, po; type: ADME, organism-based; set-up: dose 20 mg/kg, route oral; settings: in vivo
[15] = Volume of distribution at steady state in Sprague-Dawley rat at 5 mg/kg, iv; type: ADME, organism-based; set-up: dose 5 mg/kg, route intravenous; settings: in vivo, read-out: Vdss
[16] = test system: Rattus norvegicus; test: Renal toxicity in Sprague-Dawley rat assessed as effect on serum urate level at 50 to 1000 mg/kg, po bid for 2 weeks; type: organism-based; set-up: dose 50-1000 mg/kg, route oral; settings: in vivo, 336 h
[17] = test system: Rattus norvegicus; test: (§3) Tmax in Sprague-Dawley rat at 20 mg/kg, po; type: ADME, organism-based; set-up: dose 20 mg/kg, route oral; settings: in vivo
[18] = test system: Rattus norvegicus; test: (§4) Apparent half life in Sprague-Dawley rat at 20 mg/kg, po; type: ADME, organism-based; set-up: dose 20 mg/kg, route oral; settings: in vivo
[19] = Drug level in Sprague-Dawley rat urine at 5 mg/kg, iv; type: ADME, organism-based; set-up: dose 5 mg/kg, route intravenous; settings: read-out: Drug uptake
[20] = test system: Rattus norvegicus; test: Reduction of albuminuria in (mRen-2)27 rat streptozotocin-induced diabetic nephropathy model assessed as reduction of albumin level in urine at 400 mg/kg, po qd for 8 weeks administered 8 weeks post-streptozotocin treatment by radioimmunoassay; type: functional, organism-based; set-up: dose 400 mg/kg
[21] = as §1; type: ADME, organism-based, Plasma; set-up: dose 20 mg/kg, route oral, time infinity; settings: Sprague-Dawley, plasma
[22] = as §2; type: ADME, organism-based; set-up: dose 20 mg/kg, route oral; settings: Sprague-Dawley, in vivo
[23] = as §3; type: ADME, organism-based; set-up: dose 20 mg/kg, route oral; settings: Sprague-Dawley, in vivo
[24] = as §4; type: ADME, organism-based; set-up: dose 20 mg/kg, route oral; settings: Sprague-Dawley, in vivo

Q: For `O=C(/C=C/c1ccc(OC(F)(F)C(F)F)cc1)Nc1ccccc1C(=O)O`, which inhibition [1] is on record?
A: 84%

Q: With `O=S(=O)(/C=C/c1ccc(OC(F)F)c(OC(F)F)c1)Nc1ccccc1` as the compound, how does the inhibition [1] read?
A: 0%

Q: For `C/C(=C\C(=O)Nc1ccccc1C(=O)O)c1ccc(OC(F)F)c(OC(F)F)c1`, which inhibition [1] is on record?
A: 100%

Q: Which inhibition [1] does the source give for `C/C(=C\c1ccc(OC(F)F)c(OC(F)F)c1)C(=O)Nc1ccccc1C(=O)O` here?
A: 100%

Q: With `O=C(/C=C/c1ccc2c(c1)OC(F)(F)O2)Nc1ccccc1C(=O)O` as the compound, how does the inhibition [2] read?
A: 0%

Q: Which inhibition [1] does the source give for `O=C(/C=C/c1ccc(OC(F)F)c(OC(F)F)c1)Nc1ccc(Br)cc1C(=O)O` here?
A: 100%

Q: With `COc1ccc(/C=C/C(=O)Nc2ccccc2C(=O)O)cc1OC(F)(F)F` as the compound, how does the inhibition [1] read?
A: 92%

Q: And the inhibition [2]?
A: 100%

Q: Which inhibition [1] does the source give for `COc1cc(/C=C/C(=O)Nc2ccccc2C(=O)O)cc(OC)c1OC(F)F` here?
A: 24%

Q: What about the inhibition [2] of the same compound?
A: 80%

Q: For `Nc1ccccc1NC(=O)/C=C/c1ccc(OC(F)F)c(OC(F)F)c1`, which inhibition [1] is on record?
A: 57%

Q: What about the inhibition [2] of the same compound?
A: 79%

Q: With `O=C(/C=C/c1ccc(OC(F)F)c(OC(F)F)c1)Nc1ccccc1C(=O)O` as the compound, how does the Stability [3] read?
A: Stable

Q: What about the Activity [4] of the same compound?
A: Non-toxic

Q: What about the half-life [5] of the same compound?
A: 7.8 h

Q: And the dose excreted [6]?
A: 1.7%

Q: And the AUC(0-inf) [7]?
A: 894 µM·h

Q: And the Activity [8]?
A: Active

Q: And the inhibition [1]?
A: 60%

Q: What about the Activity [9] of the same compound?
A: Non-toxic

Q: What about the inhibition [2] of the same compound?
A: 100%

Q: What about the Activity [10] of the same compound?
A: Non-toxic

Q: What about the clearance [11] of the same compound?
A: 0.2 mL/min/kg

Q: And the bioavailability [12]?
A: 73%

Q: What about the AUC [13] of the same compound?
A: 2691 µM·h

Q: And the Cmax [14]?
A: 200 µM

Q: And the Vd [15]?
A: 0.1 L/kg

Q: And the Activity [16]?
A: Non-toxic

Q: What about the Tmax [17] of the same compound?
A: 2.5 h

Q: And the t1/2(app) [18]?
A: 5.4 h

Q: What about the dose excreted [19] of the same compound?
A: 3.3%

Q: With `O=C(/C=C/c1ccc(OC(F)(F)F)c(F)c1)Nc1ccccc1C(=O)O` as the compound, how does the inhibition [1] read?
A: 55%

Q: Which results are given for `C#CCOc1cc(/C=C/C(=O)Nc2ccccc2C(=O)O)ccc1OC`?
A: inhibition [1]: 20%; inhibition [2]: 55%

Q: What does the source list for `COc1cc(/C=C/C(=O)Nc2ccccc2C(=O)O)ccc1OC(F)F`?
A: inhibition [1]: 20%; inhibition [2]: 70%

Q: For `O=C(O)c1ccccc1NC(=O)C1CC1c1ccc(OC(F)F)c(OC(F)F)c1` (centres undefined), which inhibition [1] is on record?
A: 70%

Q: And the inhibition [2]?
A: 90%

Q: For `COc1ccc(/C=C/C(=O)Nc2ccccc2C(=O)O)cc1OC` [TRANILAST], which half-life [5] is on record?
A: 3.1 h

Q: What about the dose excreted [6] of the same compound?
A: 1.9%

Q: And the AUC(0-inf) [7]?
A: 110 µM·h

Q: And the inhibition [1]?
A: 15%

Q: What about the Activity [20] of the same compound?
A: Active

Q: And the inhibition [2]?
A: 40%

Q: And the clearance [11]?
A: 2 mL/min/kg

Q: What about the bioavailability [12] of the same compound?
A: 125%

Q: And the AUC(0-inf) [21]?
A: 652 µM·h

Q: And the Cmax [22]?
A: 118 µM

Q: What about the Vd [15] of the same compound?
A: 0.3 L/kg

Q: And the Tmax [23]?
A: 1.75 h

Q: What about the half-life [24] of the same compound?
A: 3.3 h

Q: And the dose excreted [19]?
A: 2.4%

Q: Which results are given for `C#CCOc1cc(/C=C/C(=O)Nc2ccccc2C(=O)O)ccc1OC(F)F`?
A: inhibition [1]: 73%; inhibition [2]: 100%
